Tests used:
platelet aggregation = assay: Platelet aggregation in rabbits, intravenous maintenance administration; format: in vivo, rabbit
Procedure: (§1) 2. Grouping and administration: 10 rabbits were randomly divided into 3 groups, 2 to 3 rabbits per group. 1) Sham operation group (NS): Intravenous injection of the same volume of physiological saline, with the same operation method as above; 2) polypeptide 2 administration group: 8.0 mg/kg+20.0 mg/kg/h; 3) positive control enoxaparin group: 50 U/kg+150 U/kg/h. According to the body weight in kilograms of the rabbits, the first dose of the drug to be tested was dissolved in 2 mL of physiological saline for single bolus injection. The maintaining dose was dissolved in 9 ml of physiological saline, and placed in a double-channel micro-injection pump, which was dripped off within 90 minutes at a dripping speed of […]. The sham operation group was administered with the same volume of physiological saline.
3.1 Surgery preparation of rabbits: Rabbits were sent to the laboratory for accommodation for one day, and then screened at first. Blood samples were taken from arteries within ears, which were subjected to blood routine analysis and APTT assay, and the rabbits with normal blood hemateikon and APTT between 16s to 28s were selected for experiments. The rabbits to be tested were fasted with free access to water for the night before the experiment. The rabbits were anesthetized with intravenous injection of 3% sodium pentobarbital solution at 1 ml/kg, fixed in the supine position, and then, the common carotid artery at one side, external jugular vein, femoral artery at one side, femoral vein, and forelimb vein at one side were isolated. The forelimb vein was subjected to intubation for administration; the left femoral vein was subjected to intubation for blood collection to determine the platelet aggregation rate; the femoral artery was used for the establishment of an arterial thrombosis model; the common carotid artery and external jugular vein were used for the establishment of an arterial and venous bypass thrombosis model.
4.1 Platelet aggregation rate: At points of 0 min before administration; 30 min. 60 min, 90 min for administration; 60 min, 120 min, 180 min after administration was terminated, 2.7 ml blood samples were taken from the femoral vein, rapidly injected into a centrifuge tube containing 0.3 ml of 3.8% sodium citrate solution, and fully mixed well. The resulted blood samples were centrifuged at 810 rpm (100 g) for 8 min to obtain PRP, and was centrifuged at 3500 rpm (1863 g) for 8 min to obtain PPP which was used to determine platelet aggregation.
Blood samples were taken before administration (0 min), 5 min and 15 min after administration, respectively, to determine the platelet aggregation rate which was used to calculate the inhibitory rate of platelet aggregation with a calculation equation as follows: […]

[1] = system: blood coagulation function; assay: APTT in rabbits, intravenous maintenance administration; format: in vivo, rabbit
Procedure: as §1
4.2 Determination of blood coagulation function: Blood samples were taken and the blood function (PT, APTT) was determined at 0 min before administration, at points of 30 min, 60 min, 90 min after administration, and at points of 60 min, 120 min and 180 min after termination of administration, using a platelet-aggregation coagulation factor analyzer. Blood samples were centrifuged at 3510 rpm for 8 min to obtain platelet poor plasma (PPP). Reagent reconstruction and preservation were performed according to the operation requirements of the kit. Immediately after each blood sample was placed into a test cup and then added with PT, TT and APTT reagents, the test was started. After the test was completed, results were recorded.

[2] = system: experimental cerebral infarction; assay: Progressive ischemic stroke (MCAO suture method) in rats; format: in vivo, rat; settings: for Cerebral index / Cerebral infarct volume ratio: 24 hours after the surgery
Procedure: 3.2 Grouping and administration: At 15 min after the mold was established, administration was started by jugular vein intubation, with the first dose and the maintenance dose for 60 min, […], while the model group was administered with physiological saline.
3.3 Experimental operation: Suture method (common carotid artery insertion method): the skin on the neck was cut open from a median incision thereon, and the common, external and internal carotid arteries were isolated therefrom. The common carotid artery was ligated at the heart-proximal end and the external carotid artery was ligated at the distal end. The distal end of the internal carotid artery was temporarily occluded with a small vascular clamp, and at the bifurcation of the common, external and internal carotid arteries, a thread for ligature was reserved. A small opening was cut with an eye scissor on the common carotid artery which was close to the internal carotid artery, to allow a certain degree of bending of the MCAO thread, which inserted into the internal carotid artery along the common carotid artery. During the thread insertion, the thread bended towards the direction of the operator, which was slowly pushed forward about 18 mm (from the bifurcation of the arteries), and terminated when a resistance was felt. The reserved thread was ligated at the bifurcation to fix the thread. At 15 min after the mold was established, the first dose was administered followed by maintenance dose for 60 min, and after the administration was finished, the wound in the neck was sutured in a conventional manner.
4.1 Neurobehavioral scores: Rats in both the groups were evaluated in terms of their neurobehavioral scores at 4, 8, and 24 hours after the surgery, with a Longa five-point quartering method as the standard: 0 point: no neurological defect; 1 point: adduction and failure to full extension of forelimbs on contralateral side when tail lifting; 2 points: rotation to the contralateral side; 3 points: toppling and falling to the contralateral side when walking; 4 points: failure to walk or coma. Cases with 1 to 4 points were classified as valid models.
4.2 observing infarct lesions and infarct volume by TTC staining: At 24 hours after the surgery, the animals were sacrificed and the brain was taken for TTC staining. The infarct volume was calculated by using a mapping software.
4.3 Cerebral index, cerebral water content: The rats in each group were rapidly decapitated 24 hours after the surgery and model establishment, and the whole brain was rapidly peeled off, which was then weighed for wet weight and used to calculate the brain index: Brain index=Brain wet weight/Body weight*100%

whole blood coagulation = assay: ACT in rabbits, intravenous maintenance administration; format: in vivo, rabbit
Procedure: as §1, with “saline. […]” for “saline.”

[3] = iv 50 U + 150 U, Administration 30 min
[4] = iv 50 U + 150 U, Administration 60 min
[5] = iv 50 U + 150 U, Administration 90 min
[6] = iv 50 U + 150 U, Before administration
[7] = iv 50 U + 150 U, Termination 60 min
[8] = iv 50 U + 150 U, Termination 120 min
[9] = iv 50 U + 150 U, Termination 180 min
[10] = iv 8.0 + 20.0 (mg/kg+mg/kg/h), Administration 30 min
[11] = iv 8.0 + 20.0 (mg/kg+mg/kg/h), Administration 60 min
[12] = iv 8.0 + 20.0 (mg/kg+mg/kg/h), Administration 90 min
[13] = iv 8.0 + 20.0 (mg/kg+mg/kg/h), Before administration
[14] = iv 8.0 + 20.0 (mg/kg+mg/kg/h), Termination 120 min
[15] = iv 8.0 + 20.0 (mg/kg+mg/kg/h), Termination 180 min
[16] = iv 0.5 + 1.25 (mg/kg + mg/kg/h)

Enoxaparin
inhibitory rate of platelet aggregation (platelet aggregation; iv 50 U + 150 U, 60 min after termination): 0.00% | inhibitory rate of platelet aggregation (platelet aggregation; iv 50 U + 150 U, 120 min after termination): 41.9% | inhibitory rate of platelet aggregation (platelet aggregation; iv 50 U + 150 U, Administration for 30 min): 26.7% | inhibitory rate of platelet aggregation (platelet aggregation; iv 50 U + 150 U, Administration for 60 min): 0.00% | inhibitory rate of platelet aggregation (platelet aggregation; iv 50 U + 150 U, Administration for 90 min): 35.27% | APTT [1, 3]: 32.4 S | APTT [1, 4]: 36.2 S | APTT [1, 5]: 38.3 S | APTT [1, 6]: 25.7 S | APTT [1, 7]: 30.5 S | APTT [1, 8]: 62.1 S | APTT [1, 9]: 41.6 S | neurological behaviors (neurobehavioral score, Longa) ([2]; iv 90 U/kg + 120 U/kg/h, 4 h after surgery): 0.63 ± 0.74 | neurological behaviors (neurobehavioral score, Longa) ([2]; iv 90 U/kg + 120 U/kg/h, 8 h after surgery): 0.88 ± 0.64 | neurological behaviors (neurobehavioral score, Longa) ([2]; iv 90 U/kg + 120 U/kg/h, 24 h after surgery): 1.38 ± 0.74 | Cerebral index ([2]; iv 90 U/kg + 120 U/kg/h): 0.6819 ± 0.0356% | Cerebral infarct volume ratio ([2]; iv 90 U/kg + 120 U/kg/h): 10.22 ± 5.38 % | ACT (whole blood coagulation; [3]): 225.0 S | ACT (whole blood coagulation; [4]): 375.0 S | ACT (whole blood coagulation; [5]): 270.0 S | ACT (whole blood coagulation; [6]): 180.0 S | ACT (whole blood coagulation; [7]): 210 S | ACT (whole blood coagulation; [8]): 195.0 S | ACT (whole blood coagulation; [9]): 225.0 S

D-Phe Pro Arg Pro Gly Gly Gly Gly Asn Gly Asp Phe Glu Glu Ile Pro Glu Glu Tyr Leu Glu Ala Ala Ala Lys Cys Har Gly Asp Trp Pro Cys [Polypeptide 2]
inhibitory rate of platelet aggregation (platelet aggregation; iv 8.0 + 20.0 (mg/kg + mg/kg/h), 60 min after termination): 14.1 ± 3.5% | inhibitory rate of platelet aggregation (platelet aggregation; iv 8.0 + 20.0 (mg/kg + mg/kg/h), 120 min after termination): 7.5 ± 1.8% | inhibitory rate of platelet aggregation (platelet aggregation; iv 8.0 + 20.0 (mg/kg + mg/kg/h), 180 min after termination): 47.5 ± 2.5% | inhibitory rate of platelet aggregation (platelet aggregation; iv 8.0 + 20.0 (mg/kg + mg/kg/h), Administration for 30 min): 61.0 ± 14.1% | inhibitory rate of platelet aggregation (platelet aggregation; iv 8.0 + 20.0 (mg/kg + mg/kg/h), Administration for 60 min): 72.1 ± 9.6% | inhibitory rate of platelet aggregation (platelet aggregation; iv 8.0 + 20.0 (mg/kg + mg/kg/h), Administration for 90 min): 55.8 ± 7.7% | APTT [1, 10]: 38.0 ± 2.3 S | APTT [1, 11]: 32.5 ± 1.0 S | APTT [1, 12]: 34.1 ± 3.7 S | APTT [1, 13]: 22.7 ± 1.7 S | APTT ([1]; iv 8.0 + 20.0 (mg/kg+mg/kg/h), Termination 60 min): 35.7 ± 14.0 S | APTT [1, 14]: 33.2 ± 2.7 S | APTT [1, 15]: 23.3 ± 1.6 S | neurological behaviors (neurobehavioral score, Longa) ([2]; iv 0.5 + 1.25 (mg/kg + mg/kg/h), 4 h after surgery): 1.00 ± 0.58 | neurological behaviors (neurobehavioral score, Longa) ([2]; iv 0.5 + 1.25 (mg/kg + mg/kg/h), 8 h after surgery): 1.00 ± 0.58 | neurological behaviors (neurobehavioral score, Longa) ([2]; iv 0.5 + 1.25 (mg/kg + mg/kg/h), 24 h after surgery): 1.00 ± 0.58 | Cerebral index [2, 16]: 0.6648 ± 0.0374 % | Cerebral infarct volume ratio [2, 16]: 11.12 ± 6.56 % | Cerebral infarct volume ratio ([2]; iv 0.5 + 1.25 (mg/kg + mg/kg/h), listed as polypeptide 2): 11.12±6.56% | neurological behaviors (neurobehavioral score, Longa) ([2]; iv 1.0 + 2.5 (mg/kg + mg/kg/h), 4 h after surgery): 0.86 ± 1.07 | neurological behaviors (neurobehavioral score, Longa) ([2]; iv 1.0 + 2.5 (mg/kg + mg/kg/h), 8 h after surgery): 0.86 ± 0.90 | neurological behaviors (neurobehavioral score, Longa) ([2]; iv 1.0 + 2.5 (mg/kg + mg/kg/h), 24 h after surgery): 1.14 ± 0.69 | Cerebral index ([2]; iv 1.0 + 2.5 (mg/kg + mg/kg/h)): 0.6830 ± 0.0322% | Cerebral infarct volume ratio ([2]; iv 1.0 + 2.5 (mg/kg + mg/kg/h)): 8.01 ± 6.66 % | Cerebral infarct volume ratio ([2]; iv 1.0 + 2.5 (mg/kg + mg/kg/h), listed as polypeptide 2): 8.01±6.66% | ACT (whole blood coagulation; [10]): 330.0 ± 63.6 S | ACT (whole blood coagulation; [11]): 277.5 ± 31.8 S | ACT (whole blood coagulation; [12]): 300.0 ± 63.6 S | ACT (whole blood coagulation; [13]): 217.5 ± 95.5 S | ACT (whole blood coagulation; [14]): 172.5 ± 31.8 S | ACT (whole blood coagulation; [15]): 112.5 ± 74.2 S
